Several values for one entry are separate records, joined by “and”; a condition that tells them apart may be missing. Identical values can stand only once.
Test system: kidney gene expression
Experiment: aristolochic acid kidney injury model, kidney RNA sequencing
Assay type: in vivo, mouse
Details: for Fold change of Pdgfra by RNA‐seq, AA + CWHM-12: vehicle 5.02; for Fold change of Pdgfrb by RNA‐seq, AA + CWHM-12: vehicle 6.79; for Fold change of Foxd1 by RNA‐seq, AA + CWHM-12: vehicle 9.55; for Fold change of Gli1 by RNA‐seq, AA + CWHM-12: vehicle 20.44; for Fold change of Crlf1 by RNA‐seq, AA + CWHM-12: vehicle 37.57
Protocol: Alzet osmotic minipumps (Cupertino, CA) were implanted subcutaneously in 8‐ to 10‐week‐old wild‐type male ICR outbred mice (Envigo) one day prior to induction of kidney injury to deliver vehicle (DMSO/H2O 1:1) or CWHM‐12 at a dose of 100 mg/kg per day. A single 5 mg/kg dose of aristolochic acid I sodium salt (Sigma‐Aldrich, A9451) in PBS was administered intraperitoneally to induce kidney injury, and mice were monitored daily for 27 days thereafter. Control (uninjured) mice were injected with an equal volume of PBS. Blood was obtained by maxillary vein puncture on days 0, 5 (peak injury), and 28 (study endpoint). For testing CWHM‐680, oral gavage (100 mg/kg per day) was started one day prior to injection of aristolochic acid I sodium salt and continued once daily until the study endpoint. Blood was obtained at days 0, 7, and 23 (study endpoint). […] Serum creatinine was measured by liquid chromatography–mass spectrometry (LC–MS/MS) at the University of Alabama O’Brien Center Bioanalytical Core. CWHM‐12 and CWHM‐680 concentrations were measured in plasma samples by liquid chromatography–tandem mass spectrometry (LC/MS/MS) using compound spiked into control plasma as a standard. All experiments were performed under protocols approved by the Institutional Animal Care and Use Committee at St. Louis University.
Total RNA was isolated from four kidneys from each of the three study groups using the RNeasy Plus Mini Kit (Qiagen). The groups were as follows: (a) aristolochic acid plus vehicle, (b) aristolochic acid plus CWHM‐12, and (c) PBS plus vehicle. After ribosomal depletion, we constructed barcoded sequencing libraries using the Ion Total RNA‐seq v2 kits (Life Technologies) according to the manufacturer's instructions. Sequencing was performed on an Ion Torrent Proton with mean read lengths of 85–110 nucleotides, and reads were aligned to the mouse mm10 genome using the TMAP aligner map4 algorithm. Soft clipping at both 5′ and 3′ ends of the reads was permitted during alignment to accommodate spliced reads, with a minimum seed length of 20 nucleotides. Genome‐wide strand‐specific nucleotide coverages were calculated from the aligned bam files for each sample using the “genomecoveragebed” program in BEDTools (Quinlan & Hall, 2010), and the nucleotide coverage for all nonredundant exons for each gene was summed using custom R scripts (http://www.Rproject.org). Normalization factors were calculated by averaging the total exon coverage for all replicates and dividing this average by the total exon coverage for each individual sample. The total coverage for each gene in each replicate was then multiplied by these factors after adding an offset of 1 to each gene to preclude division by 0 in subsequent calculations. The averages and p values of the coverage values for all genes in the individual groups were calculated using Microsoft Excel, using a two‐tailed t‐test. The expression values for each gene are the normalized strand‐specific total nucleotide coverage for each gene. The complete data set can be accessed at https://figshare.com/s/54c7f78b4523873e9b00.

[1] = AA-injured, 100 mg/kg/day s.c. minipump
[2] = AA-injured, 100 mg/kg/day s.c. minipump, relative to uninjured, 100 mg/kg/day
[3] = AA-injured, 100 mg/kg/day s.c. minipump, relative to uninjured, listed as CWHM−12, 100 mg/kg/day

CC(C)(C)c1cc(Br)cc([C@H](CC(=O)O)NC(=O)CNC(=O)c2cc(O)cc(NC3=NCC(O)CN3)c2)c1 (stereo partly shown) [CWHM‐12]
Acta2 RNA‐seq ratio AA + CWHM-12/AA + Vehicle [1]: 0.8473 | Aldh1a2 RNA‐seq ratio AA + CWHM-12/AA + Vehicle [1]: 0.6492 | Col1a1 RNA‐seq ratio AA + CWHM-12/AA + Vehicle [1]: 0.2480 | Col3a1 RNA‐seq ratio AA + CWHM-12/AA + Vehicle [1]: 0.3560 | Col5a3 RNA‐seq ratio AA + CWHM-12/AA + Vehicle [1]: 0.5587 | Crlf1 RNA‐seq ratio AA + CWHM-12/AA + Vehicle [1]: 0.1032 | Ctgf RNA‐seq ratio AA + CWHM-12/AA + Vehicle [1]: 0.5510 | Egf expression increase in injured animals, RNA-seq [1]: twofold | Fbln2 RNA‐seq ratio AA + CWHM-12/AA + Vehicle [1]: 0.5262 | Fn1 RNA‐seq ratio AA + CWHM-12/AA + Vehicle [1]: 0.5243 | Foxd1 RNA‐seq ratio AA + CWHM-12/AA + Vehicle [1]: 0.3427 | Gda RNA‐seq ratio AA + CWHM-12/AA + Vehicle [1]: 0.6302 | Gli1 RNA‐seq ratio AA + CWHM-12/AA + Vehicle [1]: 0.4486 | Gli2 RNA‐seq ratio AA + CWHM-12/AA + Vehicle [1]: 0.8986 | Gli3 RNA‐seq ratio AA + CWHM-12/AA + Vehicle [1]: 0.6039 | Mmp2 RNA‐seq ratio AA + CWHM-12/AA + Vehicle [1]: 0.4013 | NGAL (Lcn2) expression decrease vs vehicle-treated injured mice, RNA-seq [1]: 50% | Nes RNA‐seq ratio AA + CWHM-12/AA + Vehicle [1]: 0.4461 | Pdgfra RNA‐seq ratio AA + CWHM-12/AA + Vehicle [1]: 0.7298 | Pdgfrb RNA‐seq ratio AA + CWHM-12/AA + Vehicle [1]: 0.4393 | Rgs16 RNA‐seq ratio AA + CWHM-12/AA + Vehicle [1]: 0.4692 | Shroom3 RNA‐seq ratio AA + CWHM-12/AA + Vehicle [1]: 0.5633 | Tgfb1 RNA‐seq ratio AA + CWHM-12/AA + Vehicle [1]: 0.5715 | Tgfb2 RNA‐seq ratio AA + CWHM-12/AA + Vehicle [1]: 0.8306 | Tgfb3 RNA‐seq ratio AA + CWHM-12/AA + Vehicle [1]: 0.5937 | Thbs2 RNA‐seq ratio AA + CWHM-12/AA + Vehicle [1]: 0.5603 | Thbs4 RNA‐seq ratio AA + CWHM-12/AA + Vehicle [1]: 0.4558 | reduction of Myc expression, RNA-seq [1]: 35% | reduction of upregulation of eight keratin genes (Krt 7, 8, 15, 18–20, 23, 80), RNA-seq [1]: 15%–50% | decrease of Sox9 induction, RNA-seq (AA-injured, 100 mg/kg/day s.c. minipump, induction 45-fold with vehicle): 57% | Fold change of Gli2 by RNA‐seq, AA + CWHM-12 (AA-injured, 100 mg/kg/day s.c. minipump, relative to uninjured, vehicle 0.87): 0.78 fold | Fold change of Acta2 by RNA‐seq, AA + CWHM-12 (AA-injured, 100 mg/kg/day s.c. minipump, relative to uninjured, vehicle 3.7): 3.2 fold | Fold change of Shroom3 by RNA‐seq, AA + CWHM-12 (AA-injured, 100 mg/kg/day s.c. minipump, relative to uninjured, vehicle 3.9): 2.2 fold | Fold change of Tgfb2 by RNA‐seq, AA + CWHM-12 (AA-injured, 100 mg/kg/day s.c. minipump, relative to uninjured, vehicle 4.9): 4.1 fold | Fold change of Pdgfra by RNA‐seq, AA + CWHM-12 [2]: 3.7 fold | Fold change of Pdgfra by RNA‐seq, AA + CWHM-12 [3]: 3.66 fold | Fold change of Fbln2 by RNA‐seq, AA + CWHM-12 (AA-injured, 100 mg/kg/day s.c. minipump, relative to uninjured, vehicle 5.78): 3.04 fold | Fold change of Col5a3 by RNA‐seq, AA + CWHM-12 (AA-injured, 100 mg/kg/day s.c. minipump, relative to uninjured, vehicle 5.81): 3.25 fold | Fold change of Ctgf by RNA‐seq, AA + CWHM-12 (AA-injured, 100 mg/kg/day s.c. minipump, relative to uninjured, vehicle 6.4): 3.5 fold | Fold change of Pdgfrb by RNA‐seq, AA + CWHM-12 [2]: 3.0 fold | Fold change of Pdgfrb by RNA‐seq, AA + CWHM-12 [3]: 2.98 fold | Fold change of Tgfb1 by RNA‐seq, AA + CWHM-12 (AA-injured, 100 mg/kg/day s.c. minipump, relative to uninjured, vehicle 7.4): 4.2 fold | Fold change of Thbs2 by RNA‐seq, AA + CWHM-12 (AA-injured, 100 mg/kg/day s.c. minipump, relative to uninjured, vehicle 7.78): 4.36 fold | Fold change of Gda by RNA‐seq, AA + CWHM-12 (AA-injured, 100 mg/kg/day s.c. minipump, relative to uninjured, vehicle 8.17): 5.15 fold | Fold change of Tgfb3 by RNA‐seq, AA + CWHM-12 (AA-injured, 100 mg/kg/day s.c. minipump, relative to uninjured, vehicle 8.3): 4.9 fold | Fold change of Thbs4 by RNA‐seq, AA + CWHM-12 (AA-injured, 100 mg/kg/day s.c. minipump, relative to uninjured, vehicle 8.72): 3.97 fold | Fold change of Nes by RNA‐seq, AA + CWHM-12 (AA-injured, 100 mg/kg/day s.c. minipump, relative to uninjured, vehicle 8.77): 3.91 fold | Fold change of Foxd1 by RNA‐seq, AA + CWHM-12 [2]: 3.3 fold | Fold change of Foxd1 by RNA‐seq, AA + CWHM-12 [3]: 3.27 fold | Fold change of Fn1 by RNA‐seq, AA + CWHM-12 (AA-injured, 100 mg/kg/day s.c. minipump, relative to uninjured, vehicle 12.6): 6.6 fold | Fold change of Gli1 by RNA‐seq, AA + CWHM-12 [2]: 9.2 fold | Fold change of Gli1 by RNA‐seq, AA + CWHM-12 [3]: 9.17 fold | Fold change of Mmp2 by RNA‐seq, AA + CWHM-12 (AA-injured, 100 mg/kg/day s.c. minipump, relative to uninjured, vehicle 24.6): 9.9 fold | Fold change of Gli3 by RNA‐seq, AA + CWHM-12 (AA-injured, 100 mg/kg/day s.c. minipump, relative to uninjured, vehicle 24.87): 15.02 fold | Fold change of Col3a1 by RNA‐seq, AA + CWHM-12 (AA-injured, 100 mg/kg/day s.c. minipump, relative to uninjured, vehicle 28.0): 10.0 fold | Fold change of Aldh1a2 by RNA‐seq, AA + CWHM-12 (AA-injured, 100 mg/kg/day s.c. minipump, relative to uninjured, vehicle 32.44): 21.06 fold | Fold change of Crlf1 by RNA‐seq, AA + CWHM-12 [2]: 3.9 fold | Fold change of Crlf1 by RNA‐seq, AA + CWHM-12 [3]: 3.88 fold | Fold change of Col1a1 by RNA‐seq, AA + CWHM-12 (AA-injured, 100 mg/kg/day s.c. minipump, relative to uninjured, vehicle 42.1): 10.4 fold | Fold change of Rgs16 by RNA‐seq, AA + CWHM-12 (AA-injured, 100 mg/kg/day s.c. minipump, relative to uninjured, vehicle 55.80): 26.19 fold | Cdk1 expression level, fold higher, RNA-seq (AA-injured, 100 mg/kg/day s.c. minipump, vehicle 12-fold): 1.9 fold | Ccnb1 expression level, fold higher, RNA-seq (AA-injured, 100 mg/kg/day s.c. minipump, vehicle 23-fold): 1.4 fold | 0610005C13Rik RNA-seq normalized coverage, AA CWHM12.AVE (AA-injured, group average): 114105 | 0610007N19Rik RNA-seq normalized coverage, AA CWHM12.AVE (AA-injured, group average): 54308 | 0610007P14Rik RNA-seq normalized coverage, AA CWHM12.AVE (AA-injured, group average): 56128 | 0610008F07Rik RNA-seq normalized coverage, AA CWHM12.AVE (AA-injured, group average): 5309 | 0610009B14Rik RNA-seq normalized coverage, AA CWHM12.AVE (AA-injured, group average): 1314 | 0610005C13Rik RNA-seq normalized coverage, AA CWHM12 individual replicates (AA-injured, replicates 1-3): 95741 and 94900 and 151673 | 0610007N19Rik RNA-seq normalized coverage, AA CWHM12 individual replicates (AA-injured, replicates 1-3): 42985 and 46254 and 73685 | 0610007P14Rik RNA-seq normalized coverage, AA CWHM12 individual replicates (AA-injured, replicates 1-3): 42349 and 51087 and 74947 | 0610008F07Rik RNA-seq normalized coverage, AA CWHM12 individual replicates (AA-injured, replicates 1-3): 4229 and 2946 and 8751 | 0610009B14Rik RNA-seq normalized coverage, AA CWHM12 individual replicates (AA-injured, replicates 1-3): 1407 and 899 and 1635 | 0610005C13Rik AA CWHM12/AA Vehicle.RATIO (RNA-seq): 2.041 | 0610005C13Rik AA CWHM12/PBS Vehicle.RATIO (RNA-seq): 0.462 | 0610007N19Rik AA CWHM12/AA Vehicle.RATIO (RNA-seq): 1.380 | 0610007N19Rik AA CWHM12/PBS Vehicle.RATIO (RNA-seq): 1.337 | 0610007P14Rik AA CWHM12/AA Vehicle.RATIO (RNA-seq): 1.629 | 0610007P14Rik AA CWHM12/PBS Vehicle.RATIO (RNA-seq): 1.142 | 0610008F07Rik AA CWHM12/AA Vehicle.RATIO (RNA-seq): 4.723 | 0610008F07Rik AA CWHM12/PBS Vehicle.RATIO (RNA-seq): 0.373 | 0610009B14Rik AA CWHM12/AA Vehicle.RATIO (RNA-seq): 1.572 | 0610009B14Rik AA CWHM12/PBS Vehicle.RATIO (RNA-seq): 1.915
